For one compound, bioavailability and aqueous solubility results are on record in patent publication US20170135990A1, “PHARMACEUTICAL COMPOSITIONS COMPRISING A 5,5-FUSED HETEROARYLENE FLAVIVIRIDAE INHIBITOR AND THEIR USE FOR TREATING OR PREVENTING FLAVIVIRIDAE INFECTION” (IDENIX PHARMACEUTICALS LLC, priority 2014, published 2017).

The structures appear in SMILES notation.

Data set [1] in a line: pharmacokinetic study in the monkey, PEG200 solution formulation. Format: in vivo. The settings on record: 500 mg/kg, fed conditions. The protocol: Initial pharmacokinetic studies on compound A1 were performed both in vitro and in the monkey using a solution formulation containing PEG200. Compound A1 in the PEG200 solution was determined to have bioavailability of 0.1% F when administered at a dose of 500 mg/kg to the monkey under fed conditions.

A short description of data set [2]: aqueous solubility and permeability, BCS classification. Format: physicochemical. An excerpt: Compound A1 has a low aqueous solubility and low permeability and, thus, is classified as a BCS class IV compound, which presents a significant formulation challenge. Cook et al., AAPS J. 2008, 10, 306-310.

`COC(=O)N[C@H](C(=O)N1CCC[C@H]1c1nc2cc(-c3csc4c(-c5ccc(-c6cnc([C@@H]7CCCN7C(=O)[C@H](NC(=O)OC)c7ccccc7)[nH]6)cc5)csc34)ccc2[nH]1)C(C)C` [compound A1, methyl N-[(1R)-2-[(2S)-2-[5-[4-[6-[2-[(2S)-1-[(2S)-2-(methoxycarbonylamino)-3-methyl-butanoyl]pyrrolidin-2-yl]-3H-benzimidazol-5-yl]thieno[3,2-b]thiophen-3-yl]phenyl]-1H-imidazol-2-yl]pyrrolidin-1-yl]-2-oxo-1-phenyl-ethyl]carbamate]: the bioavailability in data set [1] was found to be 0.1 % F. In addition, the aqueous solubility result in data set [2] is listed as “low”.
